Reference: paper PMC6204917, “Inhibitory effects of cannabidiol on voltage-dependent sodium currents” (The Journal of Biological Chemistry, 2018)

Experiments:
Format in all cases: cell-based
hNav1.1 [1] = molecular target: T1, hNav1.1 (Homo sapiens, UniProt P35498); test: automated whole-cell voltage clamp
T1 construct: gene SCN1A; full-length alpha-subunit in HEK-293 cells with human beta1; with Sodium channel regulatory subunit beta-1

hNav1.1 [2] = molecular target: T2, hNav1.1 (Homo sapiens, UniProt P35498, F1774A); test: automated whole-cell voltage clamp
T2 construct: gene SCN1A; full-length alpha-subunit in HEK-293 cells with human beta1; with Sodium channel regulatory subunit beta-1

NaChBac = molecular target: T3, NaChBac (Halalkalibacterium halodurans, UniProt Q9KCR8); test: whole-cell voltage clamp
T3 construct: gene BH1501; homotetrameric bacterial channel expressed in HEK-293 cells (construct not described)
T3 sequence (Q9KCR8 1-274): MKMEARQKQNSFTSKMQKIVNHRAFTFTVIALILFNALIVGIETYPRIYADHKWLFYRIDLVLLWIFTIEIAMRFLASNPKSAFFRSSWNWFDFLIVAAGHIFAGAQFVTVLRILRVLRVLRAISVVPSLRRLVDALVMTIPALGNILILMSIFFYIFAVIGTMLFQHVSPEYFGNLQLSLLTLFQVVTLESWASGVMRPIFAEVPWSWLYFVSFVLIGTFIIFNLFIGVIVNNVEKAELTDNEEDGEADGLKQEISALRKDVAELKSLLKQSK

mNav1.6 = molecular target: T4, mNav1.6 (Mus musculus, UniProt Q9WTU3); test: automated whole-cell voltage clamp (Qube-384)
T4 construct: gene Scn8a; full-length mouse alpha-subunit in HEK-293 cells with human beta1; with Sodium channel regulatory subunit beta-1 (human)

hNav1.5 = molecular target: T5, hNav1.5 (Homo sapiens, UniProt Q14524); test: automated whole-cell voltage clamp (Qube-384)
T5 construct: gene SCN5A; full-length alpha-subunit in HEK-293 cells with human beta1; with Sodium channel regulatory subunit beta-1

hNav1.6 [3] = molecular target: T6, hNav1.6 (Homo sapiens, UniProt Q9UQD0); test: automated whole-cell voltage clamp
T6 construct: gene SCN8A; full-length alpha-subunit in HEK-293 cells with human beta1; with Sodium channel regulatory subunit beta-1

hNav1.3 = molecular target: T7, hNav1.3 (Homo sapiens, UniProt Q9NY46); test: automated whole-cell voltage clamp (Qube-384)
T7 construct: gene SCN3A; full-length alpha-subunit in HEK-293 cells with human beta1; with Sodium channel regulatory subunit beta-1

hNav1.6 [4] = molecular target: T8, hNav1.6 (Homo sapiens, UniProt Q9UQD0, N1768D); test: automated whole-cell voltage clamp
T8 construct: gene SCN8A; full-length alpha-subunit in HEK-293 cells with human beta1; with Sodium channel regulatory subunit beta-1

hNav1.4 = molecular target: T9, hNav1.4 (Homo sapiens, UniProt P35499); test: automated whole-cell voltage clamp (Qube-384)
T9 construct: gene SCN4A; full-length alpha-subunit in HEK-293 cells with human beta1; with Sodium channel regulatory subunit beta-1

hNav1.2 = molecular target: T10, hNav1.2 (Homo sapiens, UniProt Q99250); test: manual whole-cell patch clamp
T10 construct: gene SCN2A; full-length alpha-subunit in HEK-293 cells with human beta1; with Sodium channel regulatory subunit beta-1

| Structure (SMILES) | IC50 (hNav1.1 [1]) | IC50 (hNav1.1 [2]) | IC50 (NaChBac) | IC50 (mNav1.6) | IC50 (hNav1.5) | IC50 (hNav1.6 [3]) | IC50 (hNav1.3) | IC50 (hNav1.6 [4]) | IC50 (hNav1.4) | IC50 (hNav1.2) |
| --- | --- | --- | --- | --- | --- | --- | --- | --- | --- | --- |
| CCCCNc1ccc(C(=O)OCCN(C)C)cc1 [tetracaine] | 1.6 ± 0.1 µM | ~44.1 µM | – | – | – | – | – | – | – | – |
| C=C(C)[C@@H]1CCC(C)=C[C@H]1c1c(O)cc(CCCCC)cc1O [cannabidiol] | 2.5 ± 0.2 µM | 4.8 ± 0.2 µM | 1.5 ± 0.2 µM | 2.4 ± 0.1 µM | 3.8 ± 0.2 µM | 3 ± 0.1 µM | 3.3 ± 0.1 µM | 10 ± 0.7 µM | 1.9 ± 0.1 µM | 1.3 ± 0.1 µM |
